Laboratory results published in US20100076015A1, “Aminopyridine Derivatives” (VANTIA LIMITED, priority 2008, published 2010).

Each compound was assayed against T1, Human KLK1 (Homo sapiens, UniProt P06870) (assay: Determination of the IC50 for KLK1 (fluorogenic substrate H-DVal-Leu-Arg-AFC)). Conditions: 37° C.
T1 construct: purchased Callbiochem (Calbiochem)
T1 sequence (P06870 25-262): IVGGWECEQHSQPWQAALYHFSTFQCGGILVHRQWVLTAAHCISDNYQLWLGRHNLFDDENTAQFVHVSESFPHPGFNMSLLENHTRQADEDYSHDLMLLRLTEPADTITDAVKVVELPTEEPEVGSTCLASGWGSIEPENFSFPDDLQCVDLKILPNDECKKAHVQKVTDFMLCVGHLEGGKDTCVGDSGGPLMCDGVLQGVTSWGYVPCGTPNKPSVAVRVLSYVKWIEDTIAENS
Format: biochemical
Method: Determination of the IC50 for KLK1
KLK1 inhibitory activity in vitro was determined using standard published methods (see e.g. Johansen et al., Int. J. Tiss. Reac. 1986, 8, 185; Shori et al., Biochem. Pharmacol., 1992, 43, 1209; Stürzebecher et al., Biol. Chem. Hoppe-Seyler, 1992, 373, 1025). Human KLK1 (Callbiochem) was incubated at 37° C. with the fluorogenic substrate H-DVal-Leu-Arg-AFC and various concentrations of the test compound. Residual enzyme activity (initial rate of reaction) was determined by measuring the change in optical absorbance at 410 nm and the IC50 value for the test compound was determined.
With `CN1CCC[C@@H]1C(=O)N[C@@H](Cc1cccc(F)c1)C(=O)NCc1ccc(N)nc1` [Example 99, (R)-1-Methyl-pyrrolidine-2-carboxylic acid [(S)-1-[(6-amino-pyridin-3-ylmethyl)-carbamoyl]-2-(3-fluoro-phenyl)-ethyl]-amide] the IC50 was 17.1 nM. Compound `CCC(C)[C@@H](NS(C)(=O)=O)C(=O)N[C@@H](Cc1ccc(Cl)c(Cl)c1)C(=O)NCc1ccc(N)nc1` (stereo partly drawn) [Example 211, (R)-2-Methanesulfonylamino-3-methyl-pentanoic acid [(S)-1-[(6-amino-pyridin-3-ylmethyl)-carbamoyl]-2-(3,4-dichloro-phenyl)-ethyl]-amide] has an IC50 of 0.29 nM. For `CCN(CC)CC(=O)N[C@@H](Cc1ccc(F)cc1)C(=O)NCc1ccc(N)nc1C` [Example 428, (S)—N-(6-Amino-2-methyl-pyridin-3-ylmethyl)-2-(2-diethylamino-acetylamino)-3-(4-fluoro-phenyl)-propionamide], the IC50 was 9.9 nM. `C[C@@H](C(=O)N[C@@H](Cc1ccc(F)c(F)c1)C(=O)NCc1ccc(N)nc1)N(C)C` [Example 344, (S)—N-[(S)-1-[(6-Amino-pyridin-3-ylmethyl)-carbamoyl]-2-(3,4-difluoro-phenyl)-ethyl]-2-dimethylamino-propionamide] showed an IC50 of 21.3 nM. `Cc1cc(C(=O)N[C@@H](Cc2ccc(F)cc2)C(=O)NCc2ccc(N)nc2)n(C)n1` [Example 291, 2,5-Dimethyl-2H-pyrazole-3-carboxylic acid [(S)-1-[(6-amino-pyridin-3-ylmethyl)-carbamoyl]-2-(4-fluoro-phenyl)-ethyl]-amide] showed an IC50 of 165 nM. In the case of `CCC(C)[C@H](N)C(=O)N[C@@H](C(=O)NCc1ccc(N)nc1)[C@H](O)c1ccccc1` (stereo partly drawn) [Example 224, (S)-2-Amino-3-methyl-pentanoic acid {(1R,2R)-1-[(6-amino-pyridin-3-ylmethyl)-carbamoyl]-2-hydroxy-2-phenyl-ethyl}-amide], the IC50 is reported as 61.6 nM. Work on `CS(=O)(=O)N1CCC[C@@H]1C(=O)N[C@@H](Cc1ccc(Cl)c(Cl)c1)C(=O)NCc1ccc(N)nc1` [Example 210, (R)-1-Methanesulfonyl-pyrrolidine-2-carboxylic acid [(S)-1-[(6-amino-pyridin-3-ylmethyl)-carbamoyl]-2-(3,4-dichloro-phenyl)-ethyl]-amide] yielded an IC50 of 39 nM. With `CCC(C)[C@@H](NC)C(=O)N[C@@H](Cc1ccc(O)cc1)C(=O)NCc1ccc(N)nc1` (stereo partly drawn) [Example 47, (R)-3-Methyl-2-methylamino-pentanoic acid [(S)-1-[(6-amino-pyridin-3-ylmethyl)-carbamoyl]-2-(4-hydroxy-phenyl)-ethyl]-amide] the IC50 was 316 nM. `CC(C)CN(CC(=O)N[C@@H](Cc1ccc(F)c(F)c1)C(=O)NCc1ccc(N)nc1)CC(C)C` [Example 159, (S)—N-(6-Amino-pyridin-3-ylmethyl)-3-(3,4-difluoro-phenyl)-2-(2-diisobutylamino-acetylamino)-propionamide] showed an IC50 of 165 nM. Work on `CC1CCCC(C)N1CC(=O)N[C@@H](Cc1ccc(Cl)cc1)C(=O)NCc1ccc(N)nc1` (stereo partly drawn) [Example 426, (S)—N-(6-Amino-pyridin-3-ylmethyl)-3-(4-chloro-phenyl)-2-[2-(2,6-dimethyl-piperidin-1-yl)-acetylamino]-propionamide] yielded an IC50 of 2.7 nM. Work on `COc1ccc2[nH]c(C(=O)N[C@@H](Cc3cccc(C(F)(F)F)c3)C(=O)NCc3ccc(N)nc3)cc2c1` [Example 308, 5-Methoxy-1H-indole-2-carboxylic acid [(S)-1-[(6-amino-pyridin-3-ylmethyl)-carbamoyl]-2-(3-trifluoromethyl-phenyl)-ethyl]-amide] yielded an IC50 of 15.6 nM. For `Nc1ccc(CNC(=O)[C@H](Cc2cccc(C(F)(F)F)c2)NC(=O)CN2CCCCC2)cn1` [Example 420, (S)—N-(6-Amino-pyridin-3-ylmethyl)-2-(2-piperidin-1-yl-acetylamino)-3-(3-trifluoromethyl-phenyl)-propionamide], the IC50 was 117 nM. `Nc1ccc(CNC(=O)[C@H](Cc2ccc(F)c(F)c2)NC(=O)CN2CCCc3ccccc32)cn1` [Example 173, (S)—N-(6-Amino-pyridin-3-ylmethyl)-3-(3,4-difluoro-phenyl)-2-(2-3,4-dihydro-2H-quinolin-1-yl-acetylamino)-propionamide] showed an IC50 of 78.3 nM. Compound `CC(C)N(C)[C@H](C)C(=O)N[C@@H](Cc1ccc(Cl)c(Cl)c1)C(=O)NCc1ccc(N)nc1` [Example 151, (R)—N-[(S)-1-[(6-Amino-pyridin-3-ylmethyl)-carbamoyl]-2-(3,4-dichloro-phenyl)-ethyl]-2-(isopropyl-methyl-amino)-propionamide] has an IC50 of 17.7 nM. `CN(C)[C@@H](C(=O)N[C@@H](Cc1ccc(F)cc1)C(=O)NCc1ccc(N)nc1)C(C)(C)C` [Example 183, (R)—N-[(S)-1-[(6-Amino-pyridin-3-ylmethyl)-carbamoyl]-2-(4-fluoro-phenyl)-ethyl]-2-dimethylamino-3,3-dimethyl-butyramide] was tested, and the IC50 was 5.1 nM. `Nc1ccc(CNC(=O)[C@H](Cc2ccc(F)c(F)c2)NC(=O)c2cc3cc(F)ccc3[nH]2)cn1` [Example 326, 5-Fluoro-1H-indole-2-carboxylic acid [(S)-1-[(6-amino-pyridin-3-ylmethyl)-carbamoyl]-2-(3,4-difluoro-phenyl)-ethyl]-amide] showed an IC50 of 25.4 nM. With `CCC(C)[C@H](C(=O)N[C@@H](Cc1ccc(F)c(F)c1)C(=O)NCc1ccc(N)nc1)N(C)C` (stereo partly drawn) [Example 358, (R)-2-Dimethylamino-3-methyl-pentanoic acid [(S)-1-[(6-amino-pyridin-3-ylmethyl)-carbamoyl]-2-(3,4-difluoro-phenyl)-ethyl]-amide] the IC50 was 10.4 nM. `CC(C)N(C)[C@H](C)C(=O)N[C@@H](Cc1ccc(F)cc1)C(=O)NCc1ccc(N)nc1` [Example 180, (R)—N-[(S)-1-[(6-Amino-pyridin-3-ylmethyl)-carbamoyl]-2-(4-fluoro-phenyl)-ethyl]-2-(isopropyl-methyl-amino)-propionamide] was tested, and the IC50 was 7.9 nM. With `CN[C@H](Cc1ccccc1)C(=O)N[C@@H](Cc1cccc(Cl)c1)C(=O)NCc1ccc(N)nc1` [Example 342, (R)—N-[(S)-1-[(6-Amino-pyridin-3-ylmethyl)-carbamoyl]-2-(3-chloro-phenyl)-ethyl]-2-methylamino-3-phenyl-propionamide] the IC50 was 2.7 nM. In the case of `Cc1cc(C)c(C(=O)N[C@@H](CC2CCCCC2)C(=O)NCc2ccc(N)nc2)[nH]1` [Example 238, 3,5-Dimethyl-1H-pyrrole-2-carboxylic acid {(S)-1-[(6-amino-pyridin-3-ylmethyl)-carbamoyl]-2-cyclohexyl-ethyl}-amide], the IC50 is reported as 35.2 nM. `CC(C)N(CC(=O)N[C@@H](CC1CCCC2CCCCC21)C(=O)NCc1ccc(N)nc1)C(C)C` (stereo partly drawn) [Example 394, (S)—N-(6-Amino-pyridin-3-ylmethyl)-3-(decahydro-naphthalen-1-yl)-2-(2-diisopropylamino-acetylamino)-propionamide] was tested, and the IC50 was 8.4 nM. `Cc1nc(N)ccc1CNC(=O)[C@H](Cc1ccc(F)c(F)c1)NC(=O)[C@H](C)N1CCCCC1` [Example 432, (S)—N-[(S)-1-[(6-Amino-2-methyl-pyridin-3-ylmethyl)-carbamoyl]-2-(3,4-difluoro-phenyl)-ethyl]-2-piperidin-1-yl-propionamide] gave an IC50 of 17 nM. `Nc1ccc(CNC(=O)[C@H](Cc2ccc(F)cc2)NC(=O)c2ncc[nH]2)cn1` [Example 287, 1H-Imidazole-2-carboxylic acid [(S)-1-[(6-amino-pyridin-3-ylmethyl)-carbamoyl]-2-(4-fluoro-phenyl)-ethyl]-amide] gave an IC50 of 75.6 nM. With `CC(C(=O)N[C@@H](Cc1ccc(F)c(F)c1)C(=O)NCc1ccc(N)nc1)N1CCCCC1` (stereo partly drawn) [Example 354, N-[(S)-1-[(6-Amino-pyridin-3-ylmethyl)-carbamoyl]-2-(3,4-difluoro-phenyl)-ethyl]-2-piperidin-1-yl-propionamide] the IC50 was 11.6 nM. `CC(C)N1CCC[C@@H]1C(=O)N[C@@H](Cc1ccc(F)cc1)C(=O)NCc1ccc(N)nc1` [Example 119, (R)-1-Isopropyl-pyrrolidine-2-carboxylic acid [(S)-1-[(6-amino-pyridin-3-ylmethyl)-carbamoyl]-2-(4-fluoro-phenyl)-ethyl]-amide] showed an IC50 of 1.8 nM. In the case of `CCN1CCC[C@@H]1C(=O)N[C@@H](Cc1ccc(F)cc1)C(=O)NCc1ccc(N)nc1` [Example 136, (R)-1-Ethyl-pyrrolidine-2-carboxylic acid [(S)-1-[(6-amino-pyridin-3-ylmethyl)-carbamoyl]-2-(4-fluoro-phenyl)-ethyl]-amide], the IC50 is reported as 8.6 nM. `Cc1nc(N)ccc1CNC(=O)[C@H](Cc1ccc(F)c(F)c1)NC(=O)[C@H]1CCCN1C` [Example 205, (R)-1-Methyl-pyrrolidine-2-carboxylic acid [(S)-1-[(6-amino-2-methyl-pyridin-3-ylmethyl)-carbamoyl]-2-(3,4-difluoro-phenyl)-ethyl]-amide] gave an IC50 of 6.7 nM. In the case of `CN1CCC[C@@H]1C(=O)N[C@@H](CC1CCCC2CCCCC21)C(=O)NCc1ccc(N)nc1` (stereo partly drawn) [Example 396, (R)-1-Methyl-pyrrolidine-2-carboxylic acid [(S)-1-[(6-amino-pyridin-3-ylmethyl)-carbamoyl]-2-(decahydro-naphthalen-1-yl)-ethyl]-amide], the IC50 is reported as 1.4 nM. For `CN(CC(=O)N[C@@H](Cc1ccc(F)c(F)c1)C(=O)NCc1ccc(N)nc1)c1ccccc1` [Example 174, (S)—N-(6-Amino-pyridin-3-ylmethyl)-3-(3,4-difluoro-phenyl)-2-[2-(methyl-phenyl-amino)-acetylamino]-propionamide], the IC50 was 90 nM. Work on `COc1cccc(C[C@H](NC(=O)[C@H]2CCCN2C(C)C)C(=O)NCc2ccc(N)nc2)c1` [Example 124, (R)-1-Isopropyl-pyrrolidine-2-carboxylic acid [(S)-1-[(6-amino-pyridin-3-ylmethyl)-carbamoyl]-2-(3-methoxy-phenyl)-ethyl]-amide] yielded an IC50 of 36.8 nM.
